Measured values: ChEMBL document CHEMBL3044996, “Diatomaceous earths enhance the insecticidal effect of bitterbarkomycin against stored-grain insects” (2009)
Active and inactive are the calls of the source. No cut-off for these calls is given here.

Columns and labels:
[1] = test system: Sitophilus zeamais; assay: Insecticidal activity against adult Sitophilus zeamais assessed as mortality at 0.05 ppm exposed for 7 days on wheat; assay type: functional
[2] = test system: Cryptolestes ferrugineus; assay: Insecticidal activity against adult Cryptolestes ferrugineus (rusty grain beetle) assessed as mortality at 0.075 ppm exposed for 14 days on wheat; assay type: functional; details: 336 h
[3] = test system: Cryptolestes ferrugineus; assay: Insecticidal activity against adult Cryptolestes ferrugineus (rusty grain beetle) assessed as mortality at 0.075 ppm exposed for 5 days on wheat; assay type: functional; details: 120 h
[4] = test system: Cryptolestes ferrugineus; assay: Insecticidal activity against adult Cryptolestes ferrugineus (rusty grain beetle) assessed as mortality at 0.05 ppm exposed for 14 days on wheat; assay type: functional; details: 336 h
[5] = test system: Tribolium castaneum; assay: Insecticidal activity against adult Tribolium castaneum (red flour beetle) assessed as mortality at 0.0625 ppm exposed for 7 days on wheat; assay type: functional
[6] = test system: Tribolium castaneum; assay: Insecticidal activity against adult Tribolium castaneum (red flour beetle) assessed as mortality at 0.075 ppm exposed for 5 days on wheat; assay type: functional
[7] = test system: Tribolium castaneum; assay: Insecticidal activity against adult Tribolium castaneum (red flour beetle) assessed as mortality at 0.05 ppm exposed for 5 days on wheat; assay type: functional
[8] = test system: Cryptolestes ferrugineus; assay: Insecticidal activity against adult Cryptolestes ferrugineus (rusty grain beetle) assessed as mortality at 0.0375 ppm exposed for 7 days on wheat; assay type: functional; details: 168 h
[9] = test system: Sitophilus zeamais; assay: Insecticidal activity against adult Sitophilus zeamais assessed as mortality at 0.05 ppm exposed for 5 days on wheat; assay type: functional
[10] = test system: Tribolium castaneum; assay: Insecticidal activity against adult Tribolium castaneum (red flour beetle) assessed as mortality at 0.075 ppm exposed for 7 days on wheat; assay type: functional
[11] = test system: Tribolium castaneum; assay: Insecticidal activity against adult Tribolium castaneum (red flour beetle) assessed as mortality at 0.0875 ppm exposed for 5 days on wheat; assay type: functional
[12] = test system: Sitophilus zeamais; assay: Insecticidal activity against adult Sitophilus zeamais assessed as mortality at 0.0875 ppm exposed for 7 days on wheat; assay type: functional
[13] = test system: Tribolium castaneum; assay: Insecticidal activity against adult Tribolium castaneum (red flour beetle) assessed as mortality at 0.05 ppm exposed for 7 days on wheat; assay type: functional
[14] = test system: Cryptolestes ferrugineus; assay: Insecticidal activity against adult Cryptolestes ferrugineus (rusty grain beetle) assessed as mortality at 0.0375 ppm exposed for 5 days on wheat; assay type: functional; details: 120 h
[15] = test system: Cryptolestes ferrugineus; assay: Insecticidal activity against adult Cryptolestes ferrugineus (rusty grain beetle) assessed as mortality at 0.0875 ppm exposed for 7 days on wheat; assay type: functional; details: 168 h
[16] = test system: Tribolium castaneum; assay: Insecticidal activity against adult Tribolium castaneum (red flour beetle) assessed as mortality at 0.05 ppm exposed for 14 days on wheat; assay type: functional
[17] = test system: Sitophilus zeamais; assay: Insecticidal activity against adult Sitophilus zeamais assessed as mortality at 0.0625 ppm exposed for 5 days on wheat; assay type: functional
[18] = test system: Cryptolestes ferrugineus; assay: Insecticidal activity against adult Cryptolestes ferrugineus (rusty grain beetle) assessed as mortality at 0.05 ppm exposed for 5 days on wheat; assay type: functional; details: 120 h
[19] = test system: Tribolium castaneum; assay: Insecticidal activity against adult Tribolium castaneum (red flour beetle) assessed as mortality at 0.0875 ppm exposed for 14 days on wheat; assay type: functional
[20] = test system: Cryptolestes ferrugineus; assay: Insecticidal activity against adult Cryptolestes ferrugineus (rusty grain beetle) assessed as mortality at 0.075 ppm exposed for 7 days on wheat; assay type: functional; details: 168 h
[21] = test system: Cryptolestes ferrugineus; assay: Insecticidal activity against adult Cryptolestes ferrugineus (rusty grain beetle) assessed as mortality at 0.0625 ppm exposed for 7 days on wheat; assay type: functional; details: 168 h
[22] = test system: Cryptolestes ferrugineus; assay: Insecticidal activity against adult Cryptolestes ferrugineus (rusty grain beetle) assessed as mortality at 0.0875 ppm exposed for 5 days on wheat; assay type: functional; details: 120 h
[23] = test system: Sitophilus zeamais; assay: Insecticidal activity against adult Sitophilus zeamais assessed as mortality at 0.0625 ppm exposed for 7 days on wheat; assay type: functional
[24] = test system: Sitophilus zeamais; assay: Insecticidal activity against adult Sitophilus zeamais assessed as mortality at 0.0875 ppm exposed for 5 days on wheat; assay type: functional
[25] = test system: Tribolium castaneum; assay: Insecticidal activity against adult Tribolium castaneum (red flour beetle) assessed as mortality at 0.0875 ppm exposed for 7 days on wheat; assay type: functional
[26] = test system: Tribolium castaneum; assay: Insecticidal activity against adult Tribolium castaneum (red flour beetle) assessed as mortality at 0.0625 ppm exposed for 5 days on wheat; assay type: functional
[27] = test system: Sitophilus zeamais; assay: Insecticidal activity against adult Sitophilus zeamais assessed as mortality at 0.0875 ppm exposed for 14 days on wheat; assay type: functional
[28] = test system: Sitophilus zeamais; assay: Reduction of progeny production in adult Sitophilus zeamais at 0.0875 to 0.0375 to ppm exposed on wheat; assay type: functional, organism-based
[29] = test system: Tribolium castaneum; assay: Insecticidal activity against adult Tribolium castaneum (red flour beetle) assessed as mortality at 0.0375 ppm exposed for 14 days on wheat; assay type: functional
[30] = test system: Tribolium castaneum; assay: Insecticidal activity against adult Tribolium castaneum (red flour beetle) assessed as mortality at 0.0375 ppm exposed for 5 days on wheat; assay type: functional
[31] = test system: Tribolium castaneum; assay: Insecticidal activity against adult Tribolium castaneum (red flour beetle) assessed as mortality at 0.0625 ppm exposed for 14 days on wheat; assay type: functional
[32] = test system: Cryptolestes ferrugineus; assay: Insecticidal activity against adult Cryptolestes ferrugineus (rusty grain beetle) assessed as mortality at 0.0375 ppm exposed for 14 days on wheat; assay type: functional; details: 336 h
[33] = test system: Cryptolestes ferrugineus; assay: Reduction of progeny production in adult Cryptolestes ferrugineus (rusty grain beetle) at 0.0875 to 0.0375 to ppm exposed on wheat; assay type: functional, organism-based
[34] = test system: Sitophilus zeamais; assay: Insecticidal activity against adult Sitophilus zeamais assessed as mortality at 0.075 ppm exposed for 7 days on wheat; assay type: functional
[35] = test system: Tribolium castaneum; assay: Insecticidal activity against adult Tribolium castaneum (red flour beetle) assessed as mortality at 0.0375 ppm exposed for 7 days on wheat; assay type: functional
[36] = test system: Sitophilus zeamais; assay: Insecticidal activity against adult Sitophilus zeamais assessed as mortality at 0.0375 ppm exposed for 7 days on wheat; assay type: functional
[37] = test system: Cryptolestes ferrugineus; assay: Insecticidal activity against adult Cryptolestes ferrugineus (rusty grain beetle) assessed as mortality at 0.0625 ppm exposed for 5 days on wheat; assay type: functional; details: 120 h
[38] = test system: Sitophilus zeamais; assay: Insecticidal activity against adult Sitophilus zeamais assessed as mortality at 0.0625 ppm exposed for 14 days on wheat; assay type: functional
[39] = test system: Sitophilus zeamais; assay: Insecticidal activity against adult Sitophilus zeamais assessed as mortality at 0.075 ppm exposed for 5 days on wheat; assay type: functional
[40] = test system: Sitophilus zeamais; assay: Insecticidal activity against adult Sitophilus zeamais assessed as mortality at 0.0375 ppm exposed for 5 days on wheat; assay type: functional
[41] = test system: Cryptolestes ferrugineus; assay: Insecticidal activity against adult Cryptolestes ferrugineus (rusty grain beetle) assessed as mortality at 0.0625 ppm exposed for 14 days on wheat; assay type: functional; details: 336 h
[42] = test system: Tribolium castaneum; assay: Reduction of progeny production in adult Tribolium castaneum (red flour beetle) at 0.0875 to 0.0375 to ppm exposed on wheat; assay type: functional, organism-based
[43] = test system: Tribolium castaneum; assay: Insecticidal activity against adult Tribolium castaneum (red flour beetle) assessed as mortality at 0.075 ppm exposed for 14 days on wheat; assay type: functional
[44] = test system: Sitophilus zeamais; assay: Insecticidal activity against adult Sitophilus zeamais assessed as mortality at 0.0375 ppm exposed for 14 days on wheat; assay type: functional
[45] = test system: Sitophilus zeamais; assay: Insecticidal activity against adult Sitophilus zeamais assessed as mortality at 0.05 ppm exposed for 14 days on wheat; assay type: functional
[46] = test system: Cryptolestes ferrugineus; assay: Insecticidal activity against adult Cryptolestes ferrugineus (rusty grain beetle) assessed as mortality at 0.0875 ppm exposed for 14 days on wheat; assay type: functional; details: 336 h
[47] = test system: Sitophilus zeamais; assay: Insecticidal activity against adult Sitophilus zeamais assessed as mortality at 0.075 ppm exposed for 14 days on wheat; assay type: functional
[48] = test system: Cryptolestes ferrugineus; assay: Insecticidal activity against adult Cryptolestes ferrugineus (rusty grain beetle) assessed as mortality at 0.05 ppm exposed for 7 days on wheat; assay type: functional; details: 168 h

Question: Which results are given for `CC(=O)O[C@H]1C[C@](C)(O)[C@]23OC(C)(C)[C@H]([C@H](OCC(C)C)[C@@H](OCc4ccccc4)[C@]2(COCC(C)C)[C@H]1OC(C)=O)[C@H]3O` [BITTERBARKOMYCIN]?
Answer: Activity [1]: 65.1%; mortality at 0.075 ppm [2]: 100%; mortality at 0.075 ppm [3]: 88.4%; mortality at 0.05 ppm [4]: 86.7%; Activity [5]: 60.4%; Activity [6]: 33.6%; Activity [7]: 21.8%; mortality at 0.0375 ppm [8]: 64%; Activity [9]: 59.1%; Activity [10]: 63.1%; Activity [11]: 50%; Activity [12]: 90.4%; Activity [13]: 56.2%; mortality at 0.0375 ppm [14]: 44.7%; mortality at 0.0875 ppm [15]: 100%; Activity [16]: 86%; Activity [17]: 68.4%; mortality at 0.05 ppm [18]: 47.6%; Activity [19]: 100%; mortality at 0.075 ppm [20]: 98.2%; mortality at 0.0625 ppm [21]: 76.1%; mortality at 0.0875 ppm [22]: 92.9%; Activity [23]: 72.2%; Activity [24]: 85.3%; Activity [25]: 68%; Activity [26]: 23.3%; Activity [27]: 98.2%; Activity [28]: Active; Activity [29]: 66%; Activity [30]: 19.6%; Activity [31]: 95.8%; mortality at 0.0375 ppm [32]: 83.8%; Activity [33]: Active; Activity [34]: 86%; Activity [35]: 48.2%; Activity [36]: 52.4%; mortality at 0.0625 ppm [37]: 53.1%; Activity [38]: 83.1%; Activity [39]: 80.2%; Activity [40]: 39.8%; mortality at 0.0625 ppm [41]: 90.3%; Activity [42]: Active; Activity [43]: 99.6%; Activity [44]: 64.4%; Activity [45]: 73.8%; mortality at 0.0875 ppm [46]: 100%; Activity [47]: 92.9%; mortality at 0.05 ppm [48]: 70.7%
